Assay: gradient 5% acetonitrile 3 min, to 50% in 2 min, to 85% in 15 min, held 3 min, 100 µL/min
Settings: column: Zorbax Extend-C18 2.1 x 50 mm; eluents: water / acetonitrile, 0.1% formic acid
Method in brief: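 Data were gathered over 3 months by HPLC coupled to a quadrupole time-of-flight mass spectrometer, operated in positive and negative ionization mode. Mixtures of ~100 pure standards ran on a Zorbax Extend-C18 column (2.1 × 50 mm, 1.8 μm) at 100 μL/min, with water and acetonitrile each containing 0.1% formic acid and dead and dwell volumes of 40 μL and 900 μL. Retention time was read from adduct peaks picked by computer and checked manually.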

RP-LC retention time [s]	SMILES
1220	O=C(COc1ccc(F)cc1)Nc1ccc(-c2nc(-c3ccc(F)cc3)no2)cc1
602	CC(C)CN1CCN(C(=O)c2ccc(-c3cccs3)nc2)CC1
1020	Cc1oc(C(C)C)nc1C(=O)NC1CCCCC1
1280	COc1ccc(-c2csc(NC(=O)Nc3ccc(Cl)c(Cl)c3)n2)cc1Br
605	Cc1ccc(-c2nnc(C)c(NCc3ccccn3)n2)cc1
658	Cc1cccc(NC(=O)Cn2c(C)nc(C)c(C)c2=O)c1
1120	O=C(c1ccco1)N1CC(Oc2cccc(-c3nc(-c4ccccc4)no3)c2)C1
717	CCOc1ccc(CNC(=O)C2CCN(Cc3cn(C)c4ccc(Cl)cc34)CC2)cc1OC
870	COC(=O)c1ccc(-c2nc3cnccn3c2Nc2cc(OC)ccc2OC)cc1
797	COc1ccc2c(c1)C(O)(CC(=O)c1ccc(-c3ccc(Cl)cc3)o1)C(=O)N2 (centres undefined)
1160	O=C(c1cccn1Cc1noc(-c2ccc(Cl)cc2)n1)N1CCCCCC1
1080	Cc1ccc(NC(=O)Cn2nc3c(N4CCN(c5ccccc5C)CC4)nccn3c2=O)cc1
600	O=C(c1ccc[nH]1)N1CCN(C(=O)c2ccco2)CC1
1170	Cc1ccc(-c2cc3c(=O)n(Cc4nc(-c5ccc6c(c5)OCO6)no4)ncn3n2)c(C)c1
800	Cc1ccc(CNC(=O)C2(C)Cn3nc(C(=O)NC4CCCCC4)cc3C(=O)N2C)cc1 (centres undefined)
982	COc1ccc(NC(=O)N2CCCC2c2nc(-c3ccc(F)cc3F)no2)cc1Cl (centres undefined)
754	Cc1nc(CC(=O)NCCc2c[nH]c3ccc(Cl)cc23)cs1
872	O=C(Cn1ccc2ccn(Cc3ccccc3)c2c1=O)NCc1cccs1
928	CC(C)CCNC(=O)c1cc2c(s1)N(C)CCC2
996	CCOC(=O)c1sc(NC(=O)C(C)Oc2ccc(OC)cc2)nc1C (centres undefined)
692	O=C(NCc1cccnc1-c1ccccc1)c1cccc(Br)c1
934	O=C(NCc1cccc(C(F)(F)F)c1)c1cnc(-c2ccccc2)nc1-c1ccncc1

RP-LC retention time [s]	SMILES
692	O=C(CCc1c(-c2ccccc2)nc2ccccn12)Nc1cccc(F)c1
717	Cc1ccc(Nc2nc(C(=O)NCCc3c(C)noc3C)nc3ccccc23)cc1
831	CCc1cc(=O)n(CC(=O)Nc2cccc(Br)c2)c(N2CCOCC2)n1
836	CCCn1cc(C(=O)N2CCCc3ccccc32)c2nn(-c3ccccc3)c(=O)c-2c1
1120	COc1cccc(-c2cc3c(=O)n(Cc4nc(-c5ccc(Cl)cc5)no4)ccn3n2)c1
1010	Clc1ccccc1CNc1nnc(-c2nc(C3CC3)no2)c2ccccc12
967	CC(Cc1ccco1)NC(=O)c1cc(S(=O)(=O)N2CCCCC2)ccc1Cl (centres undefined)
859	Cc1ccc(Cn2cccc(S(=O)(=O)N3CCCC3)c2=O)cc1
594	O=C(c1ccccc1OCC1CCCN(C2CCCCC2)C1)N1CCCCC1 (centres undefined)
583	Cc1ccn(CC(C)NC(=O)c2cn3ccccc3n2)n1 (centres undefined)
805	Cn1c(=O)n([C@H]2CCN(S(=O)(=O)c3ccc(F)cc3)C2)c2ncccc21
932	CCC(C)NC(=O)COc1nc(C)nc2onc(-c3cccc(F)c3)c12 (centres undefined)
734	NC(=O)Cc1cccc(C(=O)c2ccccc2)c1N
835	CCc1cccc(Nc2c(-c3nc(C)no3)cnc3nc(C)ccc23)c1
667	Cc1noc([C@@H]2CC(F)(F)CN2C(=O)c2cocn2)n1
712	CCC(C)NC(=O)N1CC(Oc2ccc(-c3nc(-c4ccccc4)no3)cc2)C1 (centres undefined)
676	COC(=O)CNC(=O)c1cc2c(=O)n(C)c3ccccc3n2n1
766	Cc1cccc(CNC(=O)C2(C)Cn3cnc(C(=O)NCc4ccccc4)c3C(=O)N2C2CC2)c1 (centres undefined)
883	Cc1ccc(-c2nccn3cc(C(=O)NC(C)C)nc23)cc1
1320	CCOc1ccc(C2Cn3nnc(-c4nc(-c5cccc(Cl)c5)no4)c3CO2)cc1 (centres undefined)
848	COc1ccc(C(O)Cn2ccn3nc(-c4cccs4)cc3c2=O)cc1 (centres undefined)
949	Cc1nc(-c2ccc(N3CCN(C(=O)COc4ccc(Cl)cc4)CC3)nc2)sc1C

RP-LC retention time [s]	SMILES
1190	CC(C)c1nc(-n2cccc2)sc1C(=O)NCCc1ccccc1
913	COC(c1ccccc1)(c1ccccc1)[C@H](Oc1nc(C)cc(C)n1)C(=O)O
786	COc1ccc(C2CCCN2C(=O)c2cc(C)on2)cc1 (centres undefined)
745	Cc1c(F)cccc1NC(=O)N(C)CC1CCOC1 (centres undefined)
804	CC(NC(=O)c1cccc(NC(=O)c2ccco2)c1)C(=O)N1CCCc2ccccc21 (centres undefined)
934	O=C(CSc1ncnc2c1oc1ccccc12)Nc1ccc(F)cc1F
675	COc1ccc(NC(=O)C2CC(=O)N(c3ccc4c(c3)CCN4C(C)=O)C2)c(OC)c1 (centres undefined)
859	CN1C(=O)c2cccnc2Sc2cc(NC(=O)c3cc(Cl)ccc3F)ccc21
823	CCCNC(=O)c1cn(-c2ncccc2-c2nc(-c3ccccc3)no2)cn1
583	Cc1cc2c(cc1S(=O)(=O)N(C)CC(=O)N1CCN(c3ccccn3)CC1)OCC(=O)N2
917	Cc1cccc(N2C(=O)CN(Cc3ccccc3Cl)[C@H]3CS(=O)(=O)C[C@H]32)c1
666	Cc1cc(=O)n(CC(=O)Nc2ccc(Br)cc2)c(N2CCCC2)n1
836	CCOc1ccc(CNC(=O)c2c(C)sc3ccn(CC)c(=O)c23)cc1
775	O=C(NC(Cc1ccccc1)c1nnc(N2CCCCC2)o1)c1ccco1 (centres undefined)
811	CCCN(CC1CCOC1)C(=O)Nc1ccc(CC)cc1 (centres undefined)
720	O=C(NCCCN1CCOCC1)C1CCCN(c2nc3ccccc3n(Cc3ccccc3)c2=O)C1 (centres undefined)
922	O=C(NCc1ccccc1C(F)(F)F)c1cn2nc(Cl)ccc2n1
686	O=C(Nc1ccc2nc3n(c(=O)c2c1)CCC3)Nc1ccc(F)cc1F
918	Cc1cc(C)cc(C(=O)NC(Cc2ccccc2)c2nnc(N3CCSCC3)o2)c1 (centres undefined)
944	O=c1ccc(S(=O)(=O)N2CCCCCC2)cn1Cc1cccc(F)c1
633	CC1=C(C(=O)NC2CCN(Cc3ccccc3)CC2)C2(CCCCC2)OC1=O
958	O=S(=O)(c1cccn2c(SCc3ccccc3)nnc12)N1CCN(c2ccc(F)cc2)CC1

RP-LC retention time [s]	SMILES
610	Cc1oc(C(C)C)nc1C(=O)NC(C)c1ccccn1 (centres undefined)
764	COc1ccc(N2C=C(C(=O)N3CCCC3)S(=O)(=O)c3ccccc32)cc1
813	CCN1CCCn2cc(S(=O)(=O)N3CCN(c4ccccc4)CC3)cc2C1=O
684	O=C(NC1CCCC1)c1cccnc1N1CCCCC1
598	CCN1CCN(CCNC(=O)c2cnc(-c3ccc(C)cc3)nc2-c2ccncc2)CC1
814	Cc1nnc(-c2ccc3ccn(CC(=O)N4CCCc5ccccc54)c3c2)o1
575	CCCN(CC1CCOC1)C(=O)Nc1ccccc1 (centres undefined)
623	Cc1cc(C)n(-c2ccc(=O)n(CC(=O)N3CCN(c4ncccn4)CC3)n2)n1
830	COC(=O)c1ccc(NC(=O)N2CCC(n3cnc4ccc(Cl)cc4c3=O)CC2)cc1
754	COc1ccc(CNC(=O)C2CCN(c3nccn4nc(-c5cccs5)cc34)CC2)cc1
775	CCC(C)NC(=O)CSc1cc(N2CCN(c3ccc(OC)cc3)CC2)ncn1 (centres undefined)
734	O=C(Cn1c(=O)n(CCc2ccccc2)c(=O)c2ncccc21)Nc1ccc2c(c1)OCO2
596	CNC(=O)C1CN(C(=O)Cc2c[nH]c3ccccc23)CC12CCCC2 (centres undefined)
778	Cc1ccccc1N1C(=O)CN(S(C)(=O)=O)CC1(C)C(=O)NCc1ccc(Cl)cc1 (centres undefined)
892	CCC1Oc2ccc(S(=O)(=O)N3CCC(C(=O)Nc4ccc(C)c(F)c4)CC3)cc2NC1=O (centres undefined)
698	O=C(Cc1nnc(-c2cnccn2)o1)NCc1ccc(Cl)cc1
1230	CCc1nc2cc(-c3noc(-c4cccc(F)c4)n3)ccc2o1
1320	O=C(Nc1nc(-c2ccccc2)c(-c2ccccc2)o1)NC1CCCCC1
589	CC(=O)N(Cc1nn(C)c2c1CN(Cc1cn[nH]c1-c1cccs1)CC2)c1ccccc1
960	O=C(CN1c2ccc(F)cc2-c2ccccc2S1(=O)=O)NCCc1ccccc1

SMILES	RP-LC retention time [s]
O=C(CCc1nc2ccccc2s1)N1[C@H]2CC[C@@H]1c1cnc(-c3ccccc3)nc1C2	902
O=C(N1[C@H]2CC[C@@H]1c1cnc(-c3ccc(F)cc3)nc1C2)C1(c2ccccc2)CC1	1070
O=C(CN1CC=C(c2cnn(-c3ccccc3)c2)CC1)NC1CCCCCC1	702
